Assay results from publication PMC9633773, “Discovering cell-active BCL6 inhibitors: effectively combining biochemical HTS with multiple biophysical techniques, X-ray crystallography and cell-based assays” (Scientific Reports, 2022).
Ends that are not written are not given here.

Tests used:
BCL6 BTB [1] = molecular target: T1, BCL6 BTB (Homo sapiens, UniProt P41182); experiment: 19F ligand-observed NMR TFA-WVIP-NH2 peptide displacement assay; type: binding; conditions: for 19F LO-NMR, % peptide displaced: 200 µM compound, 200 µM TFA-WVIP-NH2, 6 µM BCL6 BTB, mean ± SD, n=2, hit if ≥ 30%; for Displacement of BCL6-bound TFA-WVIP-NH2 peptide (recovery of fluorine signal): Figure 3A, qualitative
T1 construct: the tag was removed by HRV-3C protease treatment, generating a simpler BCL6 5–129 product; Thioredoxin (N, cleaved yes); 6His (N, cleaved yes); made in house; host or cells: E. coli BL21-AI
Experimental: Each 180 µL ^19F-NMR peptide displacement assay contained 20 mM HEPES buffer pH 8, 100 mM NaCl, 0.5 mM TCEP, 10% D2O, 200 µM reporter TFA-WVIP-NH2, with or without 200 µM compound (4% D6-DMSO final) and 6 µM BCL6 BTB. Each 180 µL sample reaction was prepared in a 96-well plate and 170 µL transferred to a 3 mm NMR tube (Bruker, Part No. Z112272) using a Gilson liquid handler GX-281. NMR data were collected on a Bruker […] 500 MHz spectrometer equipped with a 5 mm BBFO probe. Data were acquired and processed using Bruker Topsin 2.1. The recovery of the reporter NMR signal upon addition of compound indicates competitive binding at the same site as the TFA-WVIP-NH2 tetrapeptide on the protein. We quantified the extent of recovery of NMR signal in % of reporter displacement[42]: \% displacement=Ireporter(+protein+compound)-Ireporter(+protein)/Ireporter(-protein)-Ireporter(+protein)X100\%

BCL6 BTB domain [2] = molecular target: T2, BCL6 BTB domain (Homo sapiens, UniProt P41182); experiment: Surface plasmon resonance (SPR); type: binding; conditions: immobilised BCL6 BTB, pH 6.0, 1:1 equilibrium model;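 also: Fail means no measurable KD from unsaturated curves poor sensorgrams or non-1:1 stoichiometry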
T2 construct: the tag was removed by HRV-3C protease treatment, generating a simpler BCL6 5–129 product; Thioredoxin (N, cleaved yes); 6His (N, cleaved yes); made in house; host or cells: E. coli BL21-AI
Experimental: All surface plasmon resonance (SPR) experiments were carried out on a Biacore T200 (Cytiva) and amine coupling chemistry was used to immobilise the protein on a research grade CM5 sensor chip. The running buffer consisted of 100 mM sodium acetate, 100 mM sodium chloride, and 1 mM TCEP at pH 6.0. The chip’s surface was activated for 10 min using a 1:1 mixture of 100 mM N-hydroxysuccinimide and 400 mM 1-ethyl-3-(3-dimethylaminopropyl)-carbodiimide. BCL6 BTB protein was injected for 20 min at a concentration of 100 µg/mL in a 10 mM sodium acetate buffer (pH 5.5). Finally, the surface was blocked via an injection of 1 M ethanolamine pH 8.5 for 7 min. The flow rate was maintained at 10 µL/min for all the above procedures and ~ 10,000 response units (RU) of BCL6 was immobilised on the chip. Flow cell one was left unmodified as the reference surface.
Following protein immobilisation, the running buffer was changed to 100 mM sodium acetate, 100 mM sodium chloride, 1 mM TCEP, 0.05% Tween20 (v/v), 5% DMSO at pH 6.0.
All compound handling was performed on an ECHO 550 acoustic liquid dispenser and compounds were added to 384-well polypropylene V-bottomed plates (Greiner), which became the sample plates for the SPR. […] The flow rate was 30 µL/min, the injection time for the samples was 60 s, and the dissociation time was 60 s. The surface was not regenerated between sample injections. KD values were calculated from the Langmuir plot under equilibrium conditions using the 1:1 binding model in the Biacore software version 2 (Cytiva).

NMR kinetic solubility = type: physicochemical; conditions: 500 µM final compound concentration, 20 mM HEPES buffer pH 8, 2% or 5% DMSO
Experimental: Solubility measurements by quantitative ^1H-NMR or HPLC method were performed as described previously.

BCL6 BTB domain [3] = molecular target: T2, BCL6 BTB domain; experiment: Fluorescence polarisation (FP) competition assay with BCOR-AF633 peptide; type: biochemical; conditions: for FP pIC50 Mean / IC50: repurchased hits; for IC50: up to 2 mM, n=1-6, read-out: FP IC50 Geometric Mean
Experimental: A modified BCOR peptide containing a C-terminal cysteine, labelled with Alexa Fluor (AF)633 C5 maleimide ([…]-Cys(AF633)-amide) was obtained from Cambridge Research Biochemical. For high throughput screening, the assay was miniaturized from 10 µL in Perkin Elmer 384-well black Proxi Plus plates to 4 µL in Labcyte 1536-well black low dead volume LP-0410 plates. Each complete reaction (a modified version from[9],[17]) contained 20 mM Hepes/NaOH pH 8.0, 150 mM NaCl, 0.5 mM tris(2-carboxyethyl)phosphine (TCEP), 0.05% (v/v) Tween 20, 10 nM BCOR-AF633 peptide, 3 µM BCL6 BTB and 1–2% (v/v) DMSO. At this protein concentration, we recorded a FP signal of 80 to 90 mP, corresponding to about 55% BCOR-AF633 bound to the BCL6 BTB domain. Compounds and control BCOR peptide were dispensed using an Echo550 acoustic dispenser (Beckman Coulter). Protein and peptide reagents were added using a Multidrop combi (Thermo Scientific) or a Tempest v2 (Formulatrix). After 2 h incubation at room temperature, plates were read on an Envision plate reader (Perkin Elmer) with excitation and emission wavelengths of 620 nm and 688 nm, respectively, or Pherastar FSX (BMG Labtech) with FP filters module 590-50/675-50/675-50. […] As a low signal control, we used either the maximal inhibition by BCOR in the HTS campaign, or the signal obtained from the probe in the absence of BCL6 for IC50 determination. IC50 values were calculated using a sigmoidal dose–response (variable slope) four- parameter equation. Beside the FP measurement, the total fluorescence intensity (TFI) was recorded to allow identification of interfering compounds (TFI > 110% control)[26].

BCL6 BTB [4] = molecular target: T1, BCL6 BTB; experiment: Thermal shift assay (TSA); type: binding; conditions: measured at 200 and 400 µM compound; binder if ≥ 1 °C
Experimental: Thermal shift assays were performed in 4titude FrameStar (Part No. 4ti-0385) 384 well skirted PCR plates: each well contained 10 µL of sodium acetate pH 6 buffer, 100 mM NaCl, 0.5 mM TCEP, 10 µM BCL6 BTB and 20 × Sypro Orange dye (Life Technologies), with or without inhibitor compound (100–400 µM) at 4% (v/v) final DMSO concentration. Plates were heated on a Biorad CFX384 real time thermocycler with a temperature gradient from 10 to 95 °C with a 0.5 °C increment, 0.15 s/cycle. Data were processed using Vortex (Dotmatics): a shift of the BCL6 BTB melting temperature (ΔTm) of + 1 °C or more was classed as indicative of BCL6 compound binding.

Trx-6His-BCL6 BTB = molecular target: T3, Trx-6His-BCL6 BTB (Homo sapiens, UniProt P41182); experiment: TR-FRET assay, Trx-6His-BCL6 BTB / BCOR-A633 peptide; type: biochemical; conditions: 1 or 10 nM Trx-6His-BCL6 BTB; read-out: TR-FRET IC50
T3 construct: made in house; host or cells: E. coli BL21-AI
Experimental: Each 15 µL TR-FRET reaction in 384-well black Proxiplate (Perkin Elmer) contained 1 or 10 nM Trx-6His-BCL6 BTB, 300 nM BCOR-A633 and 0.5 or 1 nM anti-6His-Terbium cryptate (Perkin Elmer), in the FP assay buffer (25 mM Hepes pH 8, 100 mM NaCl, 0.05% (v/v) Tween20, 0.5 mM TCEP), supplemented with 0.05% (w/v) bovine serum albumin. Test compounds in DMSO or DMSO alone were added to the wells using and Echo 550 acoustic dispenser to give the appropriate test concentration in 0.7% v/v DMSO final. After a 2 h incubation at room temperature, the plates were read on an Envision plate reader or a Pherastar FSX plate reader with 337 nm laser excitation, a first emission filter at 665 nm and a second emission filter at 615 or 620 nm. Data were normalised and IC50 determined as described above for the FP assay.

Row | Compound | 19F LO-NMR, % peptide displaced (BCL6 BTB [1]) [%] | SPR KD (BCL6 BTB domain [2]) | Sol. (NMR kinetic solubility) (NMR kinetic solubility) [µM] | FP pIC50 Mean (BCL6 BTB domain [3]) | IC50 (BCL6 BTB domain [3]) [µM] | TSA Tm (thermal shift) (BCL6 BTB [4]) | Kd (BCL6 BTB domain [2]) [µM] | IC50 (Trx-6His-BCL6 BTB) [µM] | FP % inhibition at top concentration (BCL6 BTB domain [3]; printed beside IC50 >980 µM, 34% inhibition at 1 mM in text) [%] | Displacement of BCL6-bound TFA-WVIP-NH2 peptide (recovery of fluorine signal) (BCL6 BTB [1]) | FP % inhibition (BCL6 BTB domain [3]; at 980 µM, n=4) [%]
1 | COC(=O)C1=C(C)Nc2ncnn2C1c1ccc(C(=O)O)cc1 (stereo not shown) [Compound 6] | 33.5 ± 1 | – | 538 | 3.15 | 703 | 0.5-1 ºC | 659 | – | – | – | –
2 | CCC1=C(C(=O)OC)C(c2ccccc2F)n2ncnc2N1 (stereo not shown) [Compound 8] | – | Fail | 70 | 3.66 | 219 | 0.5-2 ºC | – | – | – | – | –
3 | Cc1cc(NCc2ccc3c(c2)OCO3)n2ncnc2n1 [Compound 9] | 49.5 ± 9 | Fail | 96 | 3.32 | 477 | – | – | – | – | – | –
4 | N#Cc1c(C(F)(F)F)cc(-c2cccs2)nc1SC(C(=O)O)c1ccccc1 (stereo not shown) [Compound 13] | 102 ± 1 | – | 313 | 3.64 | 230 | 0-2.5 ºC | 672 | – | – | – | –
5 | Cn1c(=O)n(C)c2cc(Nc3cc(N4CCOCC4)ncn3)ccc21 [Compound 18] | – | – | 55 | – | > 980 | 0-0.5 ºC | – | – | 34 | – | –
6 | COc1cccc(CN(C)c2nc3c(cnn3C(C)(C)C)c(=O)[nH]2)c1 [Compound 20] | – | – | < 30 | 3.18 | 666 | 0 ºC | – | – | – | – | –
7 | CC(C)CCn1c(SCC(=O)Nc2ccccc2F)nc2nccnc2c1=O [Compound 22] | 23 ± 11 | – | 163 | 3.45 | 353 | 0.5-1 ºC | 1190 | – | – | – | –
8 | EGLVATVKEAGRSIHEIPR [SMRT, reference compound] | – | – | – | – | – | – | – | – | – | able to displace | –
9 | WVIP peptide: hybrid BCOR/SMRT tetrapeptide with an Ac-WVIP-NH2 sequence [reference compound] | – | – | – | – | – | – | – | – | – | – | 16

Other lines, results leading:

Row | 19F LO-NMR, % peptide displaced (BCL6 BTB [1]) [%] | SPR KD (BCL6 BTB domain [2]) | Sol. (NMR kinetic solubility) (NMR kinetic solubility) [µM] | FP pIC50 Mean (BCL6 BTB domain [3]) | IC50 (BCL6 BTB domain [3]) [µM] | TSA Tm (thermal shift) (BCL6 BTB [4]) | Kd (BCL6 BTB domain [2]) [µM] | IC50 (Trx-6His-BCL6 BTB) [µM] | FP % inhibition at top concentration (BCL6 BTB domain [3]; printed beside IC50 >980 µM, 34% inhibition at 1 mM in text) [%] | Displacement of BCL6-bound TFA-WVIP-NH2 peptide (recovery of fluorine signal) (BCL6 BTB [1]) | FP % inhibition (BCL6 BTB domain [3]; at 980 µM, n=4) [%] | Compound
10 | 61 ± 4 | Fail | 71 | 3.70 | 197 | 0-1 ºC | – | – | – | – | – | Cc1ccccc1C1CC(c2ccccc2)Nc2ncnn21 (stereo not shown) [Compound 1]
11 | 54 ± 1 | Fail | 64 | 3.99 | 102 | 0.5-2 ºC | – | – | – | – | – | Fc1ccc(C2CC(c3cccc4ccccc34)n3ncnc3N2)cc1 (stereo not shown) [Compound 3]
12 | – | – | < 30 | 3.71 | 194 | 0 ºC | – | – | – | – | – | Fc1ccc(C2CC(c3ccccc3Cl)Nc3ncnn32)cc1 (stereo not shown) [Compound 5]
13 | 82.5 ± 5 | – | 476 | 4.02 | 95.5 | 0.5-3 ºC | 168 | – | – | – | – | CCCC1=C(C(=O)OCC)C(c2cccnc2)n2ncnc2N1 (stereo not shown) [Compound 7]
14 | 78 ± 23 | – | 188 | 3.74 | 183 | 1-2.5 ºC | 302 | – | – | – | – | O=C(NCc1ccccn1)c1csc(Nc2ccccc2Cl)n1 [Compound 14]
15 | 70 ± 1 | – | 83 | 3.83 | 150 | – | 553 | – | – | – | – | O=C(NCCCN1CCOCC1)c1csc(Nc2cccc3ccccc23)n1 [Compound 15]
16 | 100 ± 1 | – | 39 | 4.15 | 70.2 | – | 49 | 54 | – | – | – | Cn1c(=O)n(C)c2cc(Nc3cc(SCc4ccccc4)ncn3)ccc21 [Compound 17]
17 | 63 ± 7 | – | 72 | 3.92 | 120 | 1-2 ºC | 81 | 70 | – | able to displace | – | N#Cc1c(NCc2ccccc2)ccnc1Cl [Compound 21]
